Molecular target: T1, human GPR139 (Homo sapiens, UniProt Q6DWJ6)
T1 construct: expressed in transfected cells; host or cells: CHO-TREx (Life Technologies) cells, expression induced with doxycycline
T1 sequence (Q6DWJ6 1-353): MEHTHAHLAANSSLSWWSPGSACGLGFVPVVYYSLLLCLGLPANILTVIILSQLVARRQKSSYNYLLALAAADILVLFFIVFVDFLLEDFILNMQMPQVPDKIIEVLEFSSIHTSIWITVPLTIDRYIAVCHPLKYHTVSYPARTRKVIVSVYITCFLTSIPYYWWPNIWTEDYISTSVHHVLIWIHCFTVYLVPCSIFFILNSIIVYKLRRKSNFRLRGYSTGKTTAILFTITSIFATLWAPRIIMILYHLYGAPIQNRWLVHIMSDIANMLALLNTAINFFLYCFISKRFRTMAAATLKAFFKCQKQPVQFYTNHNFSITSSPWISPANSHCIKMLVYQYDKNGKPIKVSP
Experiment: Inhibition rate of the amount of IP1 in GPR139-expressed CHO cells (inverse agonist assay, Test Example 2)
Type: cell-based
Details: CHO, relative value, inhibition rate of Example Compound 2 in Test Example 1 defined as 100%
Procedure: The measurement of IP1 was made using an IP-ONE HTFR assay kit (cis-bio) and CHO-TREx (Life Technologies) cells stably transfected with GPR139. The CHO-TREx cells expressed human GPR139 with a tetracycline-inducing element. The cells were cultured in a medium containing F12K and 10% tetracycline-free FBS, and the expression of human GPR139 was induced over the course of 17 hours under conditions of 37° C. and 5% CO2 in the presence of 2 μg/mL of doxycycline (Clontech, 631311) in the growth medium on the day before assay. On the day of the test, after the cells were washed with 10 mL of PBS, the cells were detached with TrypLE Express (Life Technologies) and centrifuged at 1,000 rpm to form pellets, and a cell suspension was then prepared using a stimulation buffer (cis-bio, included in the IP-ONE HTRF assay kit).
The compound was diluted with the stimulation buffer, and 4 μL was added to a 384-well white assay plate (Greiner). The cell suspension was added so that there were 2000 cells per well, and the assay plate was left to stand for 40 minutes at 37° C. Equal amounts of IP1-d2 and Ab-Crp solutions (both available from cis-bio, included in the IP-ONE HTRF assay kit) prepared with a lysis buffer (cis-bio, included in the IP-ONE HTRF assay kit) were mixed, and 4 μL was added to the assay plate and left to stand for one hour at room temperature. After the fluorescence strengths of two wavelengths were measured by the HTRF settings of Envision (PerkinElmer), the value of Ratio={(Signal 665 nm)/(Signal 615 nm)}×10000 was calculated.
Measurement of the Inhibition Rate of the Amount of IP1 in GPR139-Expressed CHO Cells (Inverse Agonist Assay)
The activities of the compounds of Examples 1 and 3 to 167 were expressed as relative values in Table 2 by measuring the inhibition rate of the amount of IP1 with the same method as in Test Example 1 and defining the inhibition rate of the amount of IP1 of Example Compound 2 in Test Example 1 as […].

SMILES	inhibition at 30 µM
CCn1cc(Cn2ccn(-c3nc(N4CCO[C@H](C)C4)cc(C(F)(F)F)c3F)c2=O)cn1 [Example 26, 1-[(1-ethyl-1H-pyrazol-4-yl)methyl]-3-{3-fluoro-6-[(2R)-2-methylmorpholin-4-yl]-4-(trifluoromethyl)pyridin-2-yl}-1,3-dihydro-2H-imidazol-2-one]	100%
CCn1cc(Cn2cc(C)n(-c3cc(N4CCOC(C)(C)C4)cc(C(F)(F)F)c3)c2=O)cn1 [Example 29, 3-[3-(2,2-dimethylmorpholin-4-yl)-5-(trifluoromethyl)phenyl]-1-[(1-ethyl-1H-pyrazol-4-yl)methyl]-4-methyl-1,3-dihydro-2H-imidazol-2-one]	99%
CCn1cc(Cn2ccn(-c3cc(N4C[C@@H](C)O[C@@H](C)C4)cc(C(F)(F)F)c3F)c2=O)cn1 [Example 31, 1-{5-[(2R,6S)-2,6-dimethylmorpholin-4-yl]-2-fluoro-3-(trifluoromethyl)phenyl}-3-[(1-ethyl-1H-pyrazol-4-yl)methyl]-1,3-dihydro-2H-imidazol-2-one]	100%
CCn1cc(Cn2ccn(-c3cc(N4CCO[C@H](C)C4)cc(Cl)c3F)c2=O)cn1 [Example 32, 1-{3-chloro-2-fluoro-5-[(2R)-2-methylmorpholin-4-yl]phenyl}-3-[(1-ethyl-1H-pyrazol-4-yl)methyl]-1,3-dihydro-2H-imidazol-2-one]	98%
CCn1cc(Cn2cc(C)n(-c3cc(C4CCC(F)(F)CC4)cc(C(F)(F)F)c3)c2=O)cn1 [Example 33, 3-[3-(4,4-difluorocyclohexyl)-5-(trifluoromethyl)phenyl]-1-[(1-ethyl-1H-pyrazol-4-yl)methyl]-4-methyl-1,3-dihydro-2H-imidazol-2-one]	100%
CCn1cc(Cn2ccn(-c3cc(N4C[C@@H](C)O[C@H](C)C4)cc(C(F)(F)F)c3F)c2=O)cn1 [Example 34, 1-{5-[(2R,6R)-2,6-dimethylmorpholin-4-yl]-2-fluoro-3-(trifluoromethyl)phenyl}-3-[(1-ethyl-1H-pyrazol-4-yl)methyl]-1,3-dihydro-2H-imidazol-2-one]	100%
CC(C)n1cc(Cn2ccn(-c3cc(N4CCO[C@H](C)C4)cc(C(F)(F)F)c3F)c2=O)cn1 [Example 35, 1-{2-fluoro-5-[(2R)-2-methylmorpholin-4-yl]-3-(trifluoromethyl)phenyl}-3-{[1-(propan-2-yl)-1H-pyrazol-4-yl]methyl}-1,3-dihydro-2H-imidazol-2-one]	99%
CCn1cc(Cn2ccn(-c3cc(N4CCC(F)(F)CC4)cc(C(F)(F)F)c3F)c2=O)cn1 [Example 36, 1-[5-(4,4-difluoropiperidin-1-yl)-2-fluoro-3-(trifluoromethyl)phenyl]-3-[(1-ethyl-1H-pyrazol-4-yl)methyl]-1,3-dihydro-2H-imidazol-2-one]	101%
CCn1cc(Cn2ccn(-c3cc(N4CCCC(F)(F)C4)cc(C(F)(F)F)c3F)c2=O)cn1 [Example 37, 1-[5-(3,3-difluoropiperidin-1-yl)-2-fluoro-3-(trifluoromethyl)phenyl]-3-[(1-ethyl-1H-pyrazol-4-yl)methyl]-1,3-dihydro-2H-imidazol-2-one]	99%
CCn1cc(Cn2cc(C)n(-c3cc(N(C)C4CCOCC4)cc(C(F)(F)F)c3)c2=O)cn1 [Example 38, 1-[(1-ethyl-1H-pyrazol-4-yl)methyl]-4-methyl-3-{3-[methyl(oxan-4-yl)amino]-5-(trifluoromethyl)phenyl}-1,3-dihydro-2H-imidazol-2-one]	99%
CCn1cc(Cn2ccn(-c3cc(N4CCC(F)(F)C4)cc(C(F)(F)F)c3F)c2=O)cn1 [Example 39, 1-[5-(3,3-difluoropyrrolidin-1-yl)-2-fluoro-3-(trifluoromethyl)phenyl]-3-[(1-ethyl-1H-pyrazol-4-yl)methyl]-1,3-dihydro-2H-imidazol-2-one]	99%
CCn1cc(Cn2ccn(-c3cc(N4CCOC(F)(F)C4)cc(C(F)(F)F)c3F)c2=O)cn1 [Example 40, 1-[5-(2,2-difluoromorpholin-4-yl)-2-fluoro-3-(trifluoromethyl)phenyl]-3-[(1-ethyl-1H-pyrazol-4-yl)methyl]-1,3-dihydro-2H-imidazol-2-one]	101%
CCn1cc(Cn2cc(C)n(-c3cc(N4CCOC(F)(F)C4)cc(C(F)(F)F)c3)c2=O)cn1 [Example 41, 3-[3-(2,2-difluoromorpholin-4-yl)-5-(trifluoromethyl)phenyl]-1-[(1-ethyl-1H-pyrazol-4-yl)methyl]-4-methyl-1,3-dihydro-2H-imidazol-2-one]	101%
CCn1cc(Cn2ccn(-c3cc(N4CCOC5(CC5)C4)cc(C(F)(F)F)c3F)c2=O)cn1 [Example 43, 1-[(1-ethyl-1H-pyrazol-4-yl)methyl]-3-[2-fluoro-5-(4-oxa-7-azaspiro[2.5]octan-7-yl)-3-(trifluoromethyl)phenyl]-1,3-dihydro-2H-imidazol-2-one]	100%
CCn1cc(Cn2ccn(-c3cc(N4CCO[C@H](C)C4)cc(C4CC4)c3F)c2=O)cn1 [Example 44, 1-{3-cyclopropyl-2-fluoro-5-[(2R)-2-methylmorpholin-4-yl]phenyl}-3-[(1-ethyl-1H-pyrazol-4-yl)methyl]-1,3-dihydro-2H-imidazol-2-one]	100%
CCn1cc(Cn2cc(C)n(-c3cc(OCOC)cc(C(F)(F)F)c3)c2=O)cn1 [Example 48, 1-[(1-ethyl-1H-pyrazol-4-yl)methyl]-3-[3-(methoxymethoxy)-5-(trifluoromethyl)phenyl]-4-methyl-1,3-dihydro-2H-imidazol-2-one]	101%

Now from value to compound:

inhibition at 30 µM	SMILES
100%	CCn1cc(Cn2c(C)cn(-c3cc(N4CCO[C@H](C)C4)cc(C(F)(F)F)c3F)c2=O)cn1 [Example 25, 3-[(1-ethyl-1H-pyrazol-4-yl)methyl]-1-{2-fluoro-5-[(2R)-2-methylmorpholin-4-yl]-3-(trifluoromethyl)phenyl}-4-methyl-1,3-dihydro-2H-imidazol-2-one]
99%	CCn1cc(Cn2cnn(-c3cc(N4CCO[C@H](C)C4)cc(C(F)(F)F)c3F)c2=O)cn1 [Example 27, 4-[(1-ethyl-1H-pyrazol-4-yl)methyl]-2-{2-fluoro-5-[(2R)-2-methylmorpholin-4-yl]-3-(trifluoromethyl)phenyl}-2,4-dihydro-3H-1,2,4-triazol-3-one]
99%	CCn1cc(Cn2cc(C)n(-c3cc(N4CCO[C@@H](C)C4)cc(C(F)(F)F)c3)c2=O)cn1 [Example 28, 1-[(1-ethyl-1H-pyrazol-4-yl)methyl]-4-methyl-3-{3-[(2S)-2-methylmorpholin-4-yl]-5-(trifluoromethyl)phenyl}-1,3-dihydro-2H-imidazol-2-one]
99%	CCn1cc(Cn2c(C)cn(-c3nc(N4CCO[C@H](C)C4)cc(C(F)(F)F)c3F)c2=O)cn1 [Example 30]
99%	CCn1cc(Cn2ccn(-c3nc(N4CCO[C@H](C)C4)cc(C(F)(F)F)c3C)c2=O)cn1 [Example 42, 1-[(1-ethyl-1H-pyrazol-4-yl)methyl]-3-{3-methyl-6-[(2R)-2-methylmorpholin-4-yl]-4-(trifluoromethyl)pyridin-2-yl}-1,3-dihydro-2H-imidazol-2-one]
101%	CCn1cc(Cn2c(C)cn(-c3nc(N4CCO[C@H](C)C4)cc(C(F)(F)F)c3C)c2=O)cn1 [Example 45, 3-[(1-ethyl-1H-pyrazol-4-yl)methyl]-4-methyl-1-{3-methyl-6-[(2R)-2-methylmorpholin-4-yl]-4-(trifluoromethyl)pyridin-2-yl}-1,3-dihydro-2H-imidazol-2-one]
100%	CCn1cc(Cn2c(C)c(C)n(-c3cc(OCC(F)F)cc(N4CCO[C@H](C)C4)c3)c2=O)cn1 [Example 46, 1-{3-(2,2-difluoroethoxy)-5-[(2R)-2-methylmorpholin-4-yl]phenyl}-3-[(1-ethyl-1H-pyrazol-4-yl)methyl]-4,5-dimethyl-1,3-dihydro-2H-imidazol-2-one]
101%	CCn1cc(Cn2c(C)c(C)n(-c3cc(OCC(F)(F)F)cc(N4CCO[C@H](C)C4)c3)c2=O)cn1 [Example 47, 1-[(1-ethyl-1H-pyrazol-4-yl)methyl]-4,5-dimethyl-3-{3-[(2R)-2-methylmorpholin-4-yl]-5-(2,2,2-trifluoroethoxy)phenyl}-1,3-dihydro-2H-imidazol-2-one]

From patent publication US12630534B2 (TAKEDA PHARMACEUTICAL COMPANY LIMITED, priority 2020, dated 2026)
